# Compound: C1CC(C2=C(C1)C3=C(N2)C=CC(=C3)Cl)C(=O)N [Selisistat]
# Assay: relative viability (nuclei count vs DMSO), 5 days (fraction); higher = more cells survive
# Conditions: 40 µM
# Outline: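 MetaXpress counted nuclei in 4× images of lung cancer cell lines that had been fixed, permeabilised and Hoechst-stained in one step. Before that, cells in 1536-well plates were kept overnight at 37 °C, pinned with five √10-spaced library-drug doses on vehicle-anchored plates, and cultured 5 days without medium change. Viability takes treated-well nuclei over vehicle-well nuclei and uses the median across plates. Plates were accepted only at control CV below 25% and at least one doubling.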
row,Cell Line,relative viability
1,NCI-H1975,0.836
2,RERF-LC-KJ,0.87
3,ABC-1,0.819
4,NCI-H358,0.976
5,NCI-H650,1.06
6,PC-3 [JPC-3],0.948

# Compound: c1ccc2c(CCNc3ccc(Nc4ccncc4)cc3)c[nH]c2c1 [Serdemetan] + CS(=O)(=O)CCNCc1ccc(-c2ccc3ncnc(Nc4ccc(OCc5cccc(F)c5)c(Cl)c4)c3c2)o1 [Lapatinib] (partner 2 µM)
# Assay: relative viability (nuclei count vs DMSO), 5 days (fraction); higher = more cells survive
# Conditions: first compound 0.04 µM
# Outline: (§1)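 A single step with final 0.05% Triton X-100, 1% formaldehyde and 1 ug/ml Hoechst fixed the cells and stained nuclei 5 days after treatment. Lung cancer cell lines in 1536-well plates had been treated by pin tool the day after seeding with one drug alone or a fixed anchor-drug dose plus five library-drug doses (not always all listed) in √10 steps, and nuclei were counted on 4× images. Relative viability is the ratio of nuclei in treated wells to nuclei in vehicle wells, taken as the median of duplicate plates.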
row,Cell Line,relative viability
1,201T,0.976
2,NCI-H1915,0.967
3,HCC-827,0.168
4,LXF-289,0.857
5,NCI-H23,1.11
6,NCI-H1299,0.939
7,NCI-H647,1.06
8,NCI-H1651,0.575
9,EPLC-272H,1.01
10,NCI-H2228,1.07
11,NCI-H1792,0.854
12,NCI-H1355,0.938
13,NCI-H3122,1
14,NCI-H1437,0.846
15,NCI-H1755,0.984
16,NCI-H2023,0.709
17,HCC-15,0.819
18,NCI-H1793,0.644
19,PC-14,0.335
20,EKVX,0.193
21,LC-2-ad,0.916
22,NCI-H1563,0.637
23,NCI-H1944,0.788
24,NCI-H1975,0.837
25,RERF-LC-KJ,0.757
26,ABC-1,1.08
27,NCI-H358,0.42
28,NCI-H650,0.779
29,PC-3 [JPC-3],0.439

# Same assay, conditions: first compound 0.1265 µM
row,Cell Line,relative viability
1,201T,0.943
2,NCI-H1915,0.995
3,HCC-827,0.178
4,LXF-289,0.885
5,NCI-H23,1.19
6,NCI-H1299,0.984
7,NCI-H647,1.11
8,CAL-12T,0.859
9,NCI-H1651,0.65
10,EPLC-272H,0.905
11,NCI-H2228,1.03
12,NCI-H1792,0.863
13,NCI-H1355,1.13
14,NCI-H3122,0.98
15,NCI-H1437,0.752
16,NCI-H1755,1.01
17,NCI-H2023,0.861
18,HCC-15,0.847
19,NCI-H1793,0.679
20,PC-14,0.3
21,EKVX,0.19
22,LC-2-ad,1
23,NCI-H1563,0.892
24,NCI-H1944,0.7
25,NCI-H1975,0.855
26,RERF-LC-KJ,0.811
27,ABC-1,1.07
28,NCI-H358,0.509
29,NCI-H650,0.844
30,PC-3 [JPC-3],0.471

# Same assay, conditions: first compound 0.4 µM
row,Cell Line,relative viability
1,201T,1.04
2,NCI-H1915,1.03
3,LXF-289,0.851
4,NCI-H23,1.13
5,NCI-H1299,0.985
6,NCI-H647,1.1
7,NCI-H1651,0.49
8,EPLC-272H,1.07
9,NCI-H2228,0.984
10,NCI-H1792,0.86
11,NCI-H1355,0.911
12,NCI-H3122,1
13,NCI-H1437,0.679
14,NCI-H1755,0.989
15,NCI-H2023,0.742
16,HCC-15,0.84
17,NCI-H1793,0.637
18,PC-14,0.295
19,EKVX,0.201
20,LC-2-ad,0.954
21,NCI-H1563,0.527
22,NCI-H1944,0.768
23,NCI-H1975,0.882
24,RERF-LC-KJ,0.826
25,ABC-1,1.25
26,NCI-H358,0.439
27,NCI-H650,1.05

# Same assay, conditions: first compound 1.265 µM
row,Cell Line,relative viability
1,201T,0.937
2,NCI-H1915,0.955
3,HCC-827,0.188
4,LXF-289,0.827
5,NCI-H23,0.818
6,NCI-H1299,0.78
7,NCI-H647,0.669
8,CAL-12T,0.599
9,NCI-H1651,0.271
10,EPLC-272H,0.618
11,NCI-H2228,0.431
12,NCI-H1792,0.646
13,NCI-H1355,1.02
14,NCI-H1437,0.76
15,NCI-H1755,0.548
16,NCI-H2023,0.387
17,HCC-15,0.657
18,NCI-H1793,0.38
19,PC-14,0.259
20,EKVX,0.18
21,NCI-H1563,0.799
22,NCI-H1975,0.837
23,RERF-LC-KJ,0.8
24,NCI-H358,0.558
25,NCI-H650,0.667
26,PC-3 [JPC-3],0.447

# Same assay, conditions: first compound 4 µM
row,Cell Line,relative viability
1,201T,0.94
2,NCI-H1915,0.965
3,HCC-827,0.173
4,LXF-289,0.759
5,NCI-H23,1.07
6,NCI-H1299,0.767
7,NCI-H647,0.475
8,CAL-12T,0.579
9,NCI-H1651,0.275
10,EPLC-272H,0.944
11,NCI-H2228,0.391
12,NCI-H1792,0.676
13,NCI-H1355,0.973
14,NCI-H3122,1.03
15,NCI-H1437,0.634
16,NCI-H1755,0.714
17,NCI-H2023,0.253
18,HCC-15,0.637
19,NCI-H1793,0.625
20,PC-14,0.251
21,EKVX,0.168
22,LC-2-ad,0.913
23,NCI-H1563,0.723
24,NCI-H1944,0.494
25,NCI-H1975,1.13
26,RERF-LC-KJ,0.754
27,ABC-1,0.717
28,NCI-H358,0.405
29,NCI-H650,0.669
30,PC-3 [JPC-3],0.465

# Compound: C1CC(C2=C(C1)C3=C(N2)C=CC(=C3)Cl)C(=O)N [Selisistat] + CS(=O)(=O)N1CCN(Cc2cc3nc(-c4cccc5[nH]ncc45)nc(N4CCOCC4)c3s2)CC1 [Pictilisib] (partner 1 µM)
# Assay: as above
# Conditions: first compound 0.4 µM
# Outline: as §1
row,Cell Line,relative viability
1,201T,0.69
2,NCI-H1915,0.913
3,HCC-827,0.86
4,LXF-289,0.845
5,NCI-H23,0.562
6,NCI-H1299,0.778
7,NCI-H647,0.488
8,CAL-12T,0.384
9,NCI-H1651,0.595
10,EPLC-272H,0.261
11,NCI-H2228,0.476
12,NCI-H1792,0.327
13,NCI-H1355,0.406
14,NCI-H3122,0.558
15,NCI-H1437,0.48
16,NCI-H1755,0.439
17,NCI-H2023,0.25
18,HCC-15,0.813
19,NCI-H1793,0.311
20,PC-14,0.699
21,EKVX,0.451
22,LC-2-ad,0.538
23,NCI-H1563,0.559
24,NCI-H1944,0.335
25,NCI-H1975,0.322
26,RERF-LC-KJ,0.6
27,ABC-1,0.782
28,NCI-H358,0.402
29,NCI-H650,0.746
30,PC-3 [JPC-3],0.753

# Same assay, conditions: first compound 1.265 µM
row,Cell Line,relative viability
1,201T,0.648
2,NCI-H1915,0.965
3,HCC-827,0.91
4,LXF-289,0.812
5,NCI-H23,0.462
6,NCI-H1299,0.744
7,CAL-12T,0.388
8,NCI-H1651,0.596
9,EPLC-272H,0.337
10,NCI-H2228,0.398
11,NCI-H1792,0.281
12,NCI-H1355,0.427
13,NCI-H3122,0.606
14,NCI-H1437,0.439
15,NCI-H1755,0.414
16,NCI-H2023,0.265
17,HCC-15,0.775
18,NCI-H1793,0.275
19,PC-14,0.66
20,EKVX,0.432
21,LC-2-ad,0.424
22,NCI-H1563,0.639
23,NCI-H1944,0.363
24,NCI-H1975,0.315
25,RERF-LC-KJ,0.436
26,ABC-1,0.895
27,NCI-H358,0.361
28,PC-3 [JPC-3],0.749

# Same assay, conditions: first compound 4 µM
row,Cell Line,relative viability
1,201T,0.58
2,NCI-H1915,0.533
3,HCC-827,1.03
4,LXF-289,0.633
5,NCI-H1299,1.02
6,NCI-H647,0.289
7,NCI-H1651,0.48
8,NCI-H2228,0.343
9,NCI-H3122,0.262
10,NCI-H1437,0.202
11,NCI-H1755,0.363
12,NCI-H2023,0.201
13,PC-14,0.729
14,EKVX,0.39
15,LC-2-ad,0.333
16,NCI-H1563,0.649
17,NCI-H1975,0.236
18,RERF-LC-KJ,0.432
19,ABC-1,0.728
20,NCI-H650,1.11
21,PC-3 [JPC-3],0.449

# Same assay, conditions: first compound 12.65 µM
row,Cell Line,relative viability
1,201T,0.673
2,NCI-H1915,0.892
3,HCC-827,0.962
4,LXF-289,0.747
5,NCI-H23,0.567
6,NCI-H1299,0.849
7,NCI-H647,0.422
8,CAL-12T,0.6
9,NCI-H1651,0.553
10,EPLC-272H,0.287
11,NCI-H2228,0.551
12,NCI-H1792,0.251
13,NCI-H1355,0.5
14,NCI-H3122,0.608
15,NCI-H1437,0.503
16,NCI-H1755,0.451
17,NCI-H2023,0.255
18,HCC-15,0.814
19,NCI-H1793,0.287
20,PC-14,0.664
21,EKVX,0.442
22,LC-2-ad,0.426
23,NCI-H1563,0.605
24,NCI-H1944,0.346
25,NCI-H1975,0.301
26,RERF-LC-KJ,0.471
27,ABC-1,0.758
28,NCI-H358,0.408
29,NCI-H650,0.594
30,PC-3 [JPC-3],0.631

# Same assay, conditions: first compound 40 µM
row,Cell Line,relative viability
1,201T,0.685
2,NCI-H1915,0.95
3,HCC-827,1.04
4,LXF-289,0.85
5,NCI-H23,0.51
6,NCI-H1299,0.692
7,NCI-H647,0.361
8,CAL-12T,0.314
9,NCI-H1651,0.516
10,EPLC-272H,0.332
11,NCI-H2228,0.557
12,NCI-H1792,0.279
13,NCI-H1355,0.514
14,NCI-H3122,0.704
15,NCI-H1437,0.455
16,NCI-H1755,0.443
17,NCI-H2023,0.222
18,HCC-15,0.793
19,NCI-H1793,0.516
20,PC-14,0.824
21,EKVX,0.53
22,LC-2-ad,0.565
23,NCI-H1563,0.623
24,NCI-H1944,0.395
25,NCI-H1975,0.265
26,RERF-LC-KJ,0.48
27,ABC-1,0.773
28,NCI-H358,0.395
29,NCI-H650,0.807
30,PC-3 [JPC-3],0.696
